Eleven compounds from ChEMBL document CHEMBL1201862, “PubChem BioAssay data set” (2004) can be followed below.

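Grown in 96-well plates, cells were treated for 48 hours with each compound at five concentrations. Insufficient inhibition: endpoint recorded as highest concentration tested. Abbreviation: GI50, concentration required for 50% inhibition of growth.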 The source made the active and inactive calls. No stated cut-off is given here; in the data, active = GI50 up to about 1.1 µM and inactive = higher.

Among the test systems are A498; ACHN; BT-549; COLO 205; DU-145; HCT-116; HCT-15; KM12; MCF7; NCI-H23; NCI-H522; OVCAR-4; PC-3; SK-MEL-5; SNB-75; SW-620; T47D; UACC-257; NCI-H460; HOP-92.
Common to all, as to experiment: DTP human tumour cell line panel, 48 h

Turning to `CC(=O)N(CCc1ccccc1)C(C#N)c1ccccc1` (configuration not stated), the GI50 (commonly the concentration giving 50% growth inhibition) in the experiment with A498 was 91.2 µM (inactive); in the experiment with ACHN, > 100 µM (inactive); in the experiment on BT-549, > 100 µM (inactive); with COLO 205, > 100 µM (inactive); in the experiment with DU-145 it was > 100 µM (inactive); in the experiment with HCT-116, > 100 µM (inactive). Besides, the concentration for 50% growth inhibition (GI50) was greater than 100 µM in the experiment with HCT-15; > 100 µM (inactive) in the experiment on KM12; > 100 µM (inactive) in the experiment with MCF7; > 100 µM (inactive) with NCI-H23; > 100 µM (inactive) in the experiment on NCI-H522; > 100 µM (inactive) in the experiment on OVCAR-4. The GI50 in the experiment on PC-3 was > 100 µM (inactive); in the experiment on SK-MEL-5, > 100 µM (inactive); in the experiment on SNB-75 it was 10.5 µM (inactive); in the experiment on SW-620 it was > 100 µM (inactive); in the experiment on T47D, > 100 µM (inactive); in the experiment on UACC-257, > 100 µM (inactive).

Consider `CN(C)CCNc1c([N+](=O)[O-])sc2ccc(Cl)cc12`, for which the GI50 is 23.3 µM (inactive) in the experiment on A498; 6.01 µM (inactive) in the experiment on ACHN; 32.3 µM (inactive) in the experiment with BT-549; 8.75 µM (inactive) in the experiment with COLO 205; 80.4 µM (inactive) in the experiment on DU-145; 7.76 µM with HCT-15. Also, the GI50 in the experiment with KM12 was > 100 µM (inactive); with MCF7 it was 7.36 µM (inactive); with NCI-H23, 23.2 µM (inactive); in the experiment on NCI-H460, 5.38 µM (inactive); in the experiment with NCI-H522, 10.8 µM (inactive); in the experiment with OVCAR-4, 12.6 µM (inactive). Moreover, the GI50 with PC-3 was 13.4 µM (inactive); in the experiment with SK-MEL-5 it was 26.2 µM (inactive); in the experiment on SNB-75, 14.5 µM (inactive); in the experiment on SW-620 it was 3.77 µM (inactive); in the experiment with T47D it was 23.6 µM (inactive).

Consider `O=C1c2ccccc2C(=O)c2c(NCC(O)CO)ccc(NCC(O)CO)c21` (configuration not stated), for which the GI50 in the experiment on A498 is > 100 µM (inactive); in the experiment on ACHN, 40.5 µM (inactive); in the experiment on BT-549, 75.7 µM (inactive); with COLO 205 it was 37.2 µM (inactive); with DU-145, 38.6 µM (inactive); in the experiment with HCT-116, 67 µM (inactive). In addition, the GI50 in the experiment with HCT-15 was 43.7 µM; in the experiment with MCF7, 21.3 µM (inactive); with NCI-H23 it was 96.2 µM (inactive); in the experiment with NCI-H460, 61 µM (inactive); with NCI-H522, 67.3 µM (inactive); in the experiment with OVCAR-4 it was > 100 µM (inactive). Also, the GI50 with PC-3 is 78 µM (inactive); with SK-MEL-5, 33.7 µM (inactive); with SNB-75, 56.4 µM (inactive); in the experiment on SW-620, 45.9 µM (inactive); with T47D, > 100 µM (inactive); with UACC-257, > 100 µM (inactive).

As for `CC(=O)Nc1nnc(S(C)(=O)=O)s1`, the GI50 in the experiment with A498, in the experiment on ACHN, in the experiment on BT-549, with COLO 205, in the experiment with DU-145 and with HCT-116 was > 100 µM (inactive) throughout. Besides, the GI50 in the experiment on HCT-15 was greater than 100 µM; with HOP-92, > 100 µM (inactive); in the experiment on KM12, > 100 µM (inactive); with MCF7, > 100 µM (inactive); with NCI-H23, > 100 µM (inactive); in the experiment with NCI-H460, > 100 µM (inactive). The GI50 in the experiment with PC-3, in the experiment on SW-620 and in the experiment with UACC-257 was > 100 µM (inactive) each time.

In the case of `Cc1ccc2c(=O)cc(Cc3cccs3)[nH]c2n1`, the GI50 was > 100 µM (inactive) in the experiment on BT-549; > 100 µM (inactive) in the experiment with COLO 205; > 100 µM (inactive) with DU-145; > 100 µM (inactive) in the experiment on HCT-116; greater than 100 µM in the experiment with HCT-15; > 100 µM (inactive) in the experiment with KM12. In addition, the GI50 with MCF7, with NCI-H23, in the experiment on NCI-H522, in the experiment with OVCAR-4, in the experiment with PC-3 and in the experiment on SK-MEL-5 was > 100 µM (inactive) in each case. In addition, the GI50 in the experiment with SNB-75 was 95.5 µM (inactive); in the experiment on SW-620 it was > 100 µM (inactive); in the experiment with T47D it was > 100 µM (inactive); in the experiment on UACC-257, > 100 µM (inactive).

For the compound `CCOC(=O)C1(C(=O)OCC)C=C(c2ccccc2)N(C2OC(COC(C)=O)C(OC(C)=O)C(OC(C)=O)C2OC(C)=O)C1=S` (configuration not stated), the GI50 with A498 was 85.1 µM (inactive); in the experiment with BT-549, 72.3 µM (inactive); in the experiment with COLO 205, > 100 µM (inactive); in the experiment on DU-145, > 100 µM (inactive); with HCT-116, > 100 µM (inactive); in the experiment on HCT-15, greater than 100 µM. Moreover, the GI50 in the experiment with HOP-92 was 93.3 µM (inactive); in the experiment with KM12, 45.6 µM (inactive); in the experiment on MCF7, 44.7 µM (inactive); with NCI-H23 it was > 100 µM (inactive); with NCI-H460, > 100 µM (inactive); with NCI-H522, 73.1 µM (inactive). Also, the GI50 in the experiment with OVCAR-4 is 51.6 µM (inactive); in the experiment with SK-MEL-5, > 100 µM (inactive); in the experiment on SW-620, > 100 µM (inactive); with T47D it was > 100 µM (inactive); in the experiment on UACC-257, 90.4 µM (inactive).

Consider `CN(c1ccccc1)S(=O)(=O)c1ccc([N+](=O)[O-])cc1`, for which the GI50 is > 100 µM (inactive) with ACHN; > 100 µM (inactive) with BT-549; > 100 µM (inactive) in the experiment on COLO 205; > 100 µM (inactive) with DU-145; > 100 µM (inactive) with HCT-116; greater than 100 µM in the experiment on HCT-15. Also, the GI50 was 46.5 µM (inactive) in the experiment on KM12; > 100 µM (inactive) in the experiment on MCF7; 83.4 µM (inactive) in the experiment on NCI-H23; > 100 µM (inactive) in the experiment with NCI-H460; > 100 µM (inactive) in the experiment on NCI-H522; > 100 µM (inactive) in the experiment on OVCAR-4. The GI50 in the experiment on PC-3 is 89.5 µM (inactive); in the experiment with SW-620, > 100 µM (inactive); in the experiment with T47D, > 100 µM (inactive); in the experiment with UACC-257 it was 92.5 µM (inactive).

For `CC(=O)CC(C)(C)NC(=O)[C@@]1(O)CC[C@H]2[C@@H]3CCC4=CC(=O)CC[C@@H]4[C@H]3CC[C@@]21C`, the GI50 in the experiment with A498, with ACHN, in the experiment on BT-549, with COLO 205, in the experiment on DU-145 and in the experiment with HCT-116 was > 100 µM (inactive) in each case. In addition, the GI50 with HCT-15 is greater than 100 µM; in the experiment with HOP-92, > 100 µM (inactive); in the experiment with KM12, > 100 µM (inactive); in the experiment on NCI-H23 it was > 100 µM (inactive); in the experiment with NCI-H460, > 100 µM (inactive); in the experiment on NCI-H522 it was > 100 µM (inactive). The GI50 with OVCAR-4 is > 100 µM (inactive); with PC-3 it was > 100 µM (inactive); in the experiment with SK-MEL-5, 72.8 µM (inactive); with SNB-75 it was > 100 µM (inactive); in the experiment with SW-620, > 100 µM (inactive); in the experiment with T47D, 63.1 µM (inactive). Besides, the GI50 with UACC-257 is > 100 µM (inactive).

In the case of `CCN(CC)c1c(-c2c(N(CC)CC)c(OC(C)=O)c3sccn3c2=O)c(=O)n2ccsc2c1OC(C)=O`, the GI50 was > 100 µM (inactive) with A498; > 100 µM (inactive) with ACHN; 32 µM (inactive) in the experiment on BT-549; > 100 µM (inactive) in the experiment with COLO 205; > 100 µM (inactive) with DU-145; 71 µM (inactive) with HCT-116. The GI50 with HCT-15 was greater than 100 µM; in the experiment with HOP-92 it was > 100 µM (inactive); with KM12 it was > 100 µM (inactive); in the experiment on NCI-H23, > 100 µM (inactive); in the experiment on NCI-H460, > 100 µM (inactive); in the experiment with OVCAR-4 it was > 100 µM (inactive). Besides, the GI50 is > 100 µM (inactive) with PC-3; > 100 µM (inactive) in the experiment on SK-MEL-5; 19.4 µM (inactive) with SNB-75; > 100 µM (inactive) in the experiment on SW-620; > 100 µM (inactive) with UACC-257.

As to `S=C(c1c[nH]c2ccccc12)N1CCOCC1`, the GI50 in the experiment on A498, in the experiment on ACHN, in the experiment with BT-549, in the experiment on COLO 205, with DU-145 and in the experiment with HCT-116 was > 100 µM (inactive) throughout. Besides, the 50% growth inhibitory concentration (GI50) is greater than 100 µM with HCT-15; > 100 µM (inactive) in the experiment on KM12; > 100 µM (inactive) in the experiment on MCF7; > 100 µM (inactive) in the experiment with NCI-H23; > 100 µM (inactive) in the experiment on NCI-H460; > 100 µM (inactive) in the experiment with PC-3. The GI50 with SK-MEL-5 is > 100 µM (inactive); in the experiment with SNB-75, 0.52 µM (active); in the experiment on SW-620, > 100 µM (inactive); with UACC-257, > 100 µM (inactive).

Regarding `CC1OC(OC2C(CO)OC(O[C@H]3CC[C@@]4(C)C(=CC[C@H]5[C@@H]6C[C@@H]7O[C@](O)(CC[C@@H](C)COC8OC(CO)C(O)C(O)C8O)[C@@H](C)[C@@H]7[C@@]6(C)CC[C@@H]54)C3)C(OC3OC(C)C(O)C(O)C3O)C2O)C(O)C(O)C1O` (some centres not stated), the GI50 in the experiment on A498 is > 100 µM (inactive); in the experiment on ACHN, 5.28 µM (inactive); with BT-549 it was 3.88 µM (inactive); in the experiment with COLO 205, 2.56 µM (inactive); in the experiment on DU-145, 2.3 µM (inactive); in the experiment on HCT-116 it was 2.08 µM (inactive). The GI50 with HCT-15 was 1.89 µM; in the experiment on KM12 it was 2.24 µM (inactive); with NCI-H23, 3.55 µM (inactive); in the experiment with NCI-H460, 1.88 µM (inactive); in the experiment with NCI-H522, 2.07 µM (inactive); with OVCAR-4, 6.73 µM (inactive). The GI50 with PC-3 is 2.41 µM (inactive); in the experiment on SK-MEL-5, 4.21 µM (inactive); with SNB-75, 1.48 µM (inactive); in the experiment on SW-620 it was 1.45 µM (inactive); in the experiment with T47D it was 4.05 µM (inactive); in the experiment with UACC-257, 4.02 µM (inactive).
